In PMC10824666 (Nature Cancer, 2023):
Like-named read-outs stand apart in the source and are kept apart here.

Columns and labels:
Assay in all cases: biochemical
Set-up in all cases: Eurofins DiscoverX kinase panel, competitive binding assay at 1 uM, percent of DMSO control
Details in all cases: competitive binding, percent of DMSO control
[1] = molecular target: T1, p38 γ (Homo sapiens, UniProt P53778)
T1 construct: gene MAPK12
T1 sequence (P53778 1-367): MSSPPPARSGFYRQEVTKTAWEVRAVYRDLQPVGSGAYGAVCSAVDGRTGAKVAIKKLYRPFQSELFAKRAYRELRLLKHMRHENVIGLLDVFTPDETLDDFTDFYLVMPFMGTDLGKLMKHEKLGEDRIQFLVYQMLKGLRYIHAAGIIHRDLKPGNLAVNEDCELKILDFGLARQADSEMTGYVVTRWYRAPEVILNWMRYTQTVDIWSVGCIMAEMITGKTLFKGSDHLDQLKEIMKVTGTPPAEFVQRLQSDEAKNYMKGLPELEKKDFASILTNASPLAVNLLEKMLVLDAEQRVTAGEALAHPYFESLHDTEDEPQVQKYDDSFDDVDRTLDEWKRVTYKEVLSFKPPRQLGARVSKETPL
In short: (§1)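 Competitive binding assay across a 96-kinase panel with KIF18A compounds at 1 µM; values given as percentage of control (POC), single experiment.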

[2] = molecular target: T2, IRAK 4 (Homo sapiens, UniProt Q9NWZ3)
T2 construct: gene IRAK4
T2 sequence (Q9NWZ3 1-460): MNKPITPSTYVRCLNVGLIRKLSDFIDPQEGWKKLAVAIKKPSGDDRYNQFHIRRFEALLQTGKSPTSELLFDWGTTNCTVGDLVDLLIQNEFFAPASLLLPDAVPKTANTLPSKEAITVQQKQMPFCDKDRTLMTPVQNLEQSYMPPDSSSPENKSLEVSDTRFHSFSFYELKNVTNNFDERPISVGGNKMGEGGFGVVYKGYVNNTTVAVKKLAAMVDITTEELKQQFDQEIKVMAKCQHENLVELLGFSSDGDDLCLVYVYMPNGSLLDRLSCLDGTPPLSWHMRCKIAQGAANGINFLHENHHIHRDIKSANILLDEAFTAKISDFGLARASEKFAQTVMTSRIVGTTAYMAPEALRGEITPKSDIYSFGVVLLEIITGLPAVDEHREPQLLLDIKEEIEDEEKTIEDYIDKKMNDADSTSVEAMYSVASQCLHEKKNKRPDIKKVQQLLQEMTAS
In short: as §1

[3] = molecular target: T3, DMPK (Homo sapiens, UniProt Q09013)
T3 sequence (Q09013 1-629): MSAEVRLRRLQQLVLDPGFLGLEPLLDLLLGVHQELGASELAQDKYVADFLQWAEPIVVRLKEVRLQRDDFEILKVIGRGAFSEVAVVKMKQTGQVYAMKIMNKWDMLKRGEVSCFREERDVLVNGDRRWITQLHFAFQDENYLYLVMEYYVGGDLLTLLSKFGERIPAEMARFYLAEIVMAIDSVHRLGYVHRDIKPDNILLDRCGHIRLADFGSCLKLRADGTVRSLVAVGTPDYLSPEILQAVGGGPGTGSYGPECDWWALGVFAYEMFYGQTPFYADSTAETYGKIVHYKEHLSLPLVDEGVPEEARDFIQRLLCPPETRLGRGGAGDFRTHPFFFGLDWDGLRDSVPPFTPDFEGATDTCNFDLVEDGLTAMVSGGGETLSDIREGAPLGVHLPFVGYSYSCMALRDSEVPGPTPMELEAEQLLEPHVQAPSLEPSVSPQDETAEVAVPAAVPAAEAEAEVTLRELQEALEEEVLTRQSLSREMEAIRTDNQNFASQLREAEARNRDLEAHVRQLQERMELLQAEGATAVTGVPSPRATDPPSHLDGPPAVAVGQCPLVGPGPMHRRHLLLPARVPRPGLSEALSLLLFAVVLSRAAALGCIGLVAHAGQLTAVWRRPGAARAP
In short: as §1

[4] = read-out: Kinome Profiling performed by Eurofins DiscoverX / AM-1882, 1.0 µM / POC
[5] = read-out: Kinome Profiling performed by Eurofins DiscoverX / AM-0277, 1.0 µM / POC
[6] = read-out: Kinome Profiling performed by Eurofins DiscoverX / AM-5308, 1.0 µM / POC

CC(C)(C)NS(=O)(=O)c1cccc(NC(=O)c2ccc(S(=O)(=O)NC(C)(C)C)cc2N2CCC3(CC2)CC3)c1 [AM-1882] gave a remaining activity at 1 µM [1, 4] of 100%, a remaining activity at 1 µM [2, 4] of 80% and a remaining activity at 1 µM [3, 4] of 99.5%.
For CC(C)(CO)Nc1ccc(C(=O)Nc2cccc(S(=O)(=O)C3CCCC3)c2)c(N2CCC3(CC2)CC3)n1 [AM-0277], the remaining activity at 1 µM [1, 5] was 100%, the remaining activity at 1 µM [2, 5] was 100% and the remaining activity at 1 µM [3, 5] was 100%.
In the case of C[C@@H]1CN(c2cccc(NC(=O)c3ccc(NS(=O)(=O)CCO)cc3N3CCC4(CC3)CC4)n2)CCO1 [AM-5308], the remaining activity at 1 µM [1, 6] is reported as 76.5%, the remaining activity at 1 µM [2, 6] is reported as 95.5% and the remaining activity at 1 µM [3, 6] is reported as 92%.
